Test [1] has as its target Cyclin-dependent kinase 1/cyclin B (Homo sapiens, UniProt P06493). Put plainly: Inhibitory concentration against Cyclin-dependent kinase 1-cyclin B. Format: protein-complex assay.
Test [2] deals with K-562 cell line (Homo sapiens). To be noted: k562.

The record followed here is ChEMBL document CHEMBL1136198, “Pyrazolo[4,3-d]pyrimidines as new generation of cyclin-dependent kinase inhibitors” (Bioorg Med Chem Lett, 2003).

As for `CC(C)n1cnc2c(NCc3ccccc3Br)ncnc21`, the IC50 was determined as 23 µM in test [1] and 49 µM on K-562 (Homo sapiens).
Consider `CC(C)n1cnc2c(NCc3ccco3)ncnc21`, for which the IC50 in test [1] is 9.1 µM; in test [2] it was above 167 uM dm**-3.
Turning to `CC(C)n1cnc2c(NCc3cccc(O)c3)ncnc21`, the IC50 is 3.1 µM in test [1] and above 167 uM dm**-3 in test [2].
In the same order, the values of `CC(C)n1cnc2c(NCc3ccc(O)cc3)ncnc21` are 4 µM and above 167 uM dm**-3.
Compound `CC(C)=CCNc1ncnc2c(C(C)C)n[nH]c12` returned an IC50 in test [2] of 152 uM dm**-3.
Turning to `COc1ccc(CNc2ncnc3c(C(C)C)n[nH]c23)cc1`, at K-562 (Homo sapiens), the IC50 is 46 µM.
For `CC(C)n1cnc2c(NCc3ccccc3O)ncnc21`, the IC50 stood at 4.4 µM in test [1] and 125 uM dm**-3 in test [2].
On to `CC(C)c1n[nH]c2c(Nc3cccc(Cl)c3)ncnc12`, for which the IC50 in test [1] came to 0.9 µM; on K-562 (Homo sapiens), 18.4 µM.
Take `CC(C)=CCNc1ncnc2c1ncn2C(C)C`: the IC50 was 17 µM in test [1] and above 167 uM dm**-3 in test [2].
On to `CCCCCNc1ncnc2c(C(C)C)n[nH]c12`, for which the figures for the IC50 (in test [1]; at K-562 (Homo sapiens)) were 1.2 µM and 61 µM, respectively.
As to `CC(C)n1cnc2c(Nc3cccc(Cl)c3)ncnc21`, the values for the IC50 (in test [1]; against K-562 (Homo sapiens)) were 5.9 µM and 54 µM, respectively.
Regarding `COc1ccc(CNc2ncnc3c2ncn3C(C)C)cc1O`, the figures for the IC50 in test [1] and in test [2] were 4.5 µM and 104 uM dm**-3, respectively.
Take `CC(C)c1n[nH]c2c(NCc3cccc(O)c3)ncnc12`: the IC50 in test [1] worked out at 1.7 µM; against K-562 (Homo sapiens), 88 µM.
`CC(C)c1n[nH]c2c(NCc3ccccc3O)ncnc12` gave an IC50 on K-562 (Homo sapiens) of 54 µM.
`CC(C)c1n[nH]c2c(NCc3ccc(O)cc3)ncnc12` showed an IC50 in test [2] of 112 uM dm**-3.
As for `CC(C)c1n[nH]c2c(NCc3ccccc3)ncnc12`, the results for the IC50 (in test [1]; at K-562 (Homo sapiens)) were 1.2 µM and 66 µM, respectively.
In the same order, the values of `CC(C)c1n[nH]c2c(NCc3ccccc3Br)ncnc12` are 11 µM and 29 µM.
`CC(C)c1n[nH]c2c(NCc3ccco3)ncnc12`: the IC50 in test [1] is 2.5 µM; in test [2], above 167 uM dm**-3.
`COc1ccc(CNc2ncnc3c(C(C)C)n[nH]c23)cc1O`: the IC50 came out at 1.1 µM in test [1] and 26 µM against K-562 (Homo sapiens).
`CC(C)n1cnc2c(NCc3ccccc3)ncnc21`: the results for the IC50 in test [1] and in test [2] were 3.6 µM and 113 uM dm**-3, respectively.
Turning to `CCCCCNc1ncnc2c1ncn2C(C)C`, the IC50 in test [1] was determined as 6.9 µM; in test [2], 144 uM dm**-3.
With `COc1ccc(CNc2ncnc3c2ncn3C(C)C)cc1`, the IC50 in test [1] was 3.8 µM; in test [2], above 167 uM dm**-3.
